Columns and labels:
Type in all cases: cell-based, rat
[1] = system: IRE1α (WT); test: Dox-induced IRE1α (WT) hyperactivation in INS-1 stable lines; details: STF-083010 at 50 µM
Description: These aforementioned terminal UPR signaling events can be completely mimicked simply by controlled over-expression of IRE1α, in the complete absence of upstream ER stress. Tetracycline-inducible isogenic INS-1 stable cell lines expressing WT IRE1α were generated. Induced with doxycycline (dox) the transgenic IRE1α proteins oligomerize, spontaneously trans-autophosphorylate and trigger XBP1 mRNA splicing. The transgenic systems are finely tuneable, with increasing [Dox] causing progressively greater IRE1α induction (the transgenic IRE1α protein is Myc-tagged). Phospho/Myc IRE1α ratios are finely controllable (and measureable) with increasing [Dox], as is XBP1 mRNA splicing. […] These include reduction of miR-17 and Ins1 mRNA, induction of CHOP mRNA, induction and proteolytic cleavage of caspases 1,2, and 3, and apoptosis as measured by Annexin-V staining. […]
For protein analysis, cells were lysed in M-PER buffer (Thermo Scientific) plus complete EDTA-free protease inhibitor (Roche) and phosphatase inhibitor cocktail (Sigma). The concentration of samples was determined using BCA Protein Assay (Thermo). […] Antibody binding was detected by using near-infrared-dye-conjugated secondary antibodies (Licor) on the LI-COR Odyssey scanner or visualized by capturing on a CL-XPosure film using ECL SuperSignal West Dura Extended Duration Substrate (both from Thermo Scientific).

[2] = system: endogenous IRE1α; test: IRE1α auto-phosphorylation immunoblot in INS-1 cells under ER stress; details: ER stress (Tg)
Experimental: (§1) FIGS. 5A-5E. […] (FIG. 5C) EtBr-stained agarose gel of XBP1 complementary DNA (cDNA) amplicons from the INS-1 cells described in (B).
(§2) To further explore how IRE1α modulators affect the kinase and RNase activities of endogenous IRE1α under ER stress, in vivo studies using INS-1 rat insulinoma cell lines, which are derived from insulin-producing pancreatic β-cell tumors and contain large well-developed ERs, were conducted.
For protein analysis, cells were lysed in M-PER buffer (Thermo Scientific) plus complete EDTA-free protease inhibitor (Roche) and phosphatase inhibitor cocktail (Sigma). The concentration of samples was determined using BCA Protein Assay (Thermo). […] Gels were run using MES buffer and transferred onto nitrocellulose transfer membrane using an XCell II™ Blot Module. Blocking, antibody incubation, and washing were done in PBS or TBS with 0.05% Tween-20 (v/v) and 5% (w/v) non-fat dry milk or BSA, or blocking buffer (Licor-Odyssey). Antibodies used were: mouse anti-Actin (Sigma-Aldrich); rabbit anti-cleaved Caspase-2 (Abcam); mouse anti-GAPDH, anti-c-Myc, anti-rabbit, anti-proinsulin, and anti-IRE1α (Santa Cruz Biotechnology); anti-phospho-IRE1α and anti-full length Caspase-2 (Novus Biologicals); and rabbit anti-Caspase-3, anti-JNK, anti-eIF2a, anti-phospho-eIF2a, and mouse anti-phospho-JNK (Cell Signaling). Antibody binding was detected by using near-infrared-dye-conjugated secondary antibodies (Licor) on the LI-COR Odyssey scanner or visualized by capturing on a CL-XPosure film using ECL SuperSignal West Dura Extended Duration Substrate (both from Thermo Scientific).

[3] = system: endogenous IRE1α; test: XBP1 mRNA splicing in INS-1 cells under ER stress; details: thapsigargin (Tg) 6 nM
Experimental: as §1, §2

[4] = system: INS-1 cells; test: Annexin V apoptosis of INS-1 cells under ER stress
Experimental: FIGS. 19A-19D. KIRA6 inhibits Terminal UPR outputs of IRE1α to protect against ER stress-induced apoptosis. […] (FIG. 19B) Q-PCR for Ins1 mRNA in INS-1 IRE1α (WT) cells treated with Dox (5 ng/ml)−/+STF-083010 (50 M) over the indicated timecourse. (FIG. 19C) Annexin V staining of INS-1 cells after 72 hr with indicated [Tm]−/+STF-083010 (50 M). (FIG. 19D) Annexin V staining of INS-1 cells after 72 hr with Tm (0.2 μg/ml), STF-083010 (1 or 5 M), and KIRA6 (0.05 M) as indicated. Data plotted as mean+/−SD. P-values: *<0.05, **<0.01, ***<0.005.
For assaying apoptosis by Annexin V staining, cells were plated in 12-well plates overnight. Cells were then treated with various reagents for indicated time periods. On the day of flow cytometry analysis, cells were trypsinized and washed in PBS and resuspended in Annexin V binding buffer with Annexin-V FITC (BD Pharmingen™). Flow cytometry was performed on a Becton Dickinson LSRII flow cytometer.

O=S(=O)(N=Cc1c(O)ccc2ccccc12)c1cccs1 [STF-083010, N-[(2-Hydroxy-1-naphthalenyl)methylene]-2-thiophenesulfonamide, reference compound]
Ins1 mRNA decay under IRE1α hyperactivation [1]: decreases Ins1 mRNA decay under IRE1α hyperactivation | endogenous IRE1α auto-phosphorylation in INS-1 cells [2]: does not prevent IRE1α auto-phosphorylation | endogenous IRE1α auto-phosphorylation in INS-1 cells ([2]; listed as STF): does not inhibit IRE1α auto-phosphorylation | XBP1 mRNA splicing (IRE1α RNase activity) in INS-1 cells [3]: inhibits XBP1 splicing in a dose-dependent manner | cytoprotection under Tm, single agent at the dose of the combination ([4]; STF-083010 1 M or KIRA6 50 nM alone): sub-therapeutic individually | apoptosis by Tm ([4]; STF-083010 at 50 µM): decreases

Reference: patent US20170165259A1, “COMBINED MODULATION OF IRE1” (THE REGENTS OF THE UNIVERSITY OF CALIFORNIA, priority 2014, published 2017)
